Reference: patent publication US20210023223A1, “HYDROCARBON / LIPID - CAROTENOID COMPLEXES” (IP SCIENCE LIMITED, priority 2018, published 2021)
Read-outs that look alike come from different tables or passages of the source.

Columns and labels:
[1] = Heating olive oil-in-water emulsions; type: physicochemical
[2] = Lycopene in serum and cerumen after 20 mg lycopene for 1 month; type: in vivo, human; details: n = 18; for concentration at 1 month: both sexes, human, oral, after 20 mg lycopene daily for one month
Procedure: Study Design. The total number of volunteers recruited to take part in the study was 18 (9 male and 9 female subjects) Caucasians 40-67 years old.
Products Formulated with Lycopene was developed and made by Lycotec Ltd. (Cambridge, United Kingdom). The daily dose was 1 capsule of 20 mg of lycopene, and it was taken with the main meal of the day. The period of administration was 1 month.
Blood was collected by phlebotomy in the morning, in the hospital, from the arm veins of patients following night fast. The serum was separated from the rest of the clotted mass by centrifugation; aliquots were then stored in code-labelled tubes for blinded analysis and stored at −80° C. until use.
For sample collection from the surface of the facial skin and samples of the cerumen all study participants were requested to avoid facial and ear hygienic manipulations for 24 hours before sampling, which was carried out in the morning in parallel with blood sample collection. Skin surface sample collection and preparation was performed as previously described. Briefly, samples were collected using polyester swabs from the surface of the facial skin (the sides of the nose). During the procedure two samples were taken (one swab per side). Each collected sample was placed on the surface of a microscope slide. A second microscope slide was pressed against the surface of the first one. This procedure provided a pair of identical smears. All slides with collected samples were coded to provide sample anonymity for blinded analysis and stored at −20° C. until further analysis.
The lycopene concentration in all serum samples was measured in duplicate by high-performance liquid chromatography with modifications. Briefly, 400 μl of serum was mixed with 400 μl of ethanol and was extracted twice with 2 ml hexane. The combined hexane layers were evaporated to dryness in a vacuum (Scan Speed 32 centrifuge) and the residue reconstituted to a volume of 100 μl in sample solution (absolute ethanol—methylene chloride, 5:1, v/v). The specimens were centrifuged again (15 minutes at 10,000 g) and clear supernatant was transferred to HPLC vials. Five microliters of the extract was injected into an Acquity HSS T3 75×2.1 mm 1.8 μm column (Waters, USA) preceded by a Acquity HSS T3 1.8 μm VanGuard precolumn (Waters, USA) and eluted isocratically at 45° C. with the mobile phase (acetonitrile—0.08% phosphoric acid solution—tert-Butyl methyl ether, 70:5:25, v/v/v) at a flow rate of 0.5 ml/min. The lycopene peak was detected by a Photodiode Array Detector (Waters, USA) at 474 nm. The peak area was measured using Empower 3 software (Waters, Mass.). The lycopene concentration in serum samples was calculated by reference to an analytical standard (lycopene from tomato, L9879, Sigma, USA).

[3] = Size of lipid droplets of dairy butter, microscopy; type: physicochemical
Description: For measurement of lipid droplets and fat globules and quantification of their size binocular microscope Olympus BX41 was used with Cell^B software for morphometric analysis. All parameters were collected from 10 randomly selected microscopic fields at ×1000).
Incorporation of lycopene into the butter led to a significant increase in the size of its lipid droplets and many reached more than 100 or even 300 fold of their diameter. This effect was dose-dependent, and can already be observed for less than 1 molecule of lycopene to 224,000 molecules of butter triglycerides.

[4] = Heating dairy butter to boiling point; type: physicochemical
Procedure: Small pieces of butter (about 1 g) were placed in a metallic tray. They were heated to 350° C. (Revotherm, Scientific Instruments Ltd.) and boiled for 3 minutes. Time taken to reach boiling point was fixed with a laboratory timer (QUANTUM).

[5] = tested on: middle-aged volunteers, facial skin; assay: Lycopene trial, facial skin surface material; type: in vivo, human; details: 7 mg formulated lycopene daily, 4 weeks
Procedure: Group II—15 middle-aged (7 males and 8 females, 48-65 years old) for lycopene intervention and
Group II—participants received 7 mg formulated lycopene,
Daily dose of each carotenoid product was taken in one capsule with the main evening meal for 4 weeks (from day 1 to day 28 of the study).
For RSSC sample collection all participants of the study were requested to avoid facial hygienic manipulations for 24 hours before material collection, which was carried out in the morning. These samples were collected only before initiation of astaxanthin supplementation (day 0) and at the end of the study (day 29). RSSC sample collection and preparation was performed according to previously described procedures. Briefly, RSSC samples were collected using polyester swabs from the surface of the facial skin (the sides of the nose). During the procedure two samples were taken (one swab per side). Each collected sample was placed on the surface of a microscope slide. A second microscope slide was pressed against the surface of the first one. […] All slides with collected samples (i.e. four slides per study participant per time point) were coded to provide sample anonymity for blinded analysis. All collected samples were sent to the laboratory of Lycotec Ltd for further processing and eventual microscopic examination.
For morphological analysis of RSSC samples one slide of the first pair was stained with hematoxylin and eosin in order to identify any cells or cell remnants. The second slide was stained using Oil Red O (Lipid Stain, ab150678, Abcam, Cambridge, UK) for lipid visualization and lipid droplet size evaluation. One slide from the other pair was stained with crystal violet solution (Gram staining) to assess the level of microorganism presence. The remaining slides were kept unstained for possible future use.
The analysis of typical structural elements of the RSSC comprised lipid droplet measurements, counting characteristic lipid crystals and desquamated corneocytes, and evaluation of bacterial presence as previously described. The indicated micro objects/structures were quantified using Cell^B imaging software (Digital Imaging Solutions, Olympus, Japan). All microscopic samples were blinded before their examinations.
Smears collected from the surface of the facial skin were fixed with methanol. Permeabilised corneocytes and sebum present in the material were stained for direct immunofluorescence using fluorescein isothiocyanate-conjugated monoclonal antibody against lycopene recently generated by our group. Fluorescent staining was visualised using Nikon Eclipse 50i microscope with fluorescence attachment. The semi-quantitative analysis was based on visually assessing fluorescence levels in corneocytes and surrounding sebum in 20 random fields of view at ×200 magnification. Fluorescence intensity in the samples was classified using the following scoring system: 0—no fluorescence; 0.5—traces of fluorescence; 1—weak fluorescence; 2—moderate fluorescence; 3—strong fluorescence of some cells or areas of sebum background; 4—extremely strong fluorescence (confluent fluorescent elements within corneocytes). Fluorescence assessment in each sample was repeated blindly three times.

## CC(C)=CCC/C(C)=C/C=C/C(C)=C/C=C/C(C)=C/C=C/C=C(C)/C=C/C=C(C)/C=C/C=C(\C)CCC=C(C)C [Lycopene]
[1]; 50%:50%, 1 molecule lycopene to 67,000 or astaxanthin to 71,000 fatty acids, control 10° C.
  Rate of heating of olive oil emulsion in water in the first 3 minutes: 18 °C
[1]; water to olive oil 75%:25%, control 62° C.
  Maximum temperature the emulsion could reach: 100 °C
[2]; before
  Lycopene in cerumen: 0.29 ± 0.05 ng/mg
  Lycopene in serum: 137 ± 14.5 ng/mL
[2]; cerumen, read-out: Lycopene in cerumen
  concentration at 1 month: 900 ± 120 ng/g
[2]; serum, read-out: Lycopene in serum
  concentration at 1 month: 310 ± 29.9 ng/mL
[3]; lycopene dose 0.1 per 30 g of butter
  Size of butter lipid droplets, Mean: 34.32 μm
[3]; lycopene dose 0.5 per 30 g of butter
  Size of butter lipid droplets, Mean: 60.39 μm
[3]; lycopene dose 1.0 per 30 g of butter
  Size of butter lipid droplets, Mean: 92.35 μm
[3]; lycopene dose 3.5 per 30 g of butter
  Size of butter lipid droplets, Mean: 90.18 μm
[3]; lycopene dose 7.0 per 30 g of butter
  Size of butter lipid droplets, Mean: 178.95 μm
[3]; lycopene dose 10.0 per 30 g of butter
  Size of butter lipid droplets, Mean: 141.17 μm
[3]; many droplets, 'more than 100 or even 300 fold'
  Increase in the size of butter lipid droplets (diameter): more than 100 fold
[4]; number of lycopene molecules increased to 10
  Reduction of time to bring butter to its boiling point: 75%
[4]; one molecule of lycopene to more than 22,000 molecules of butter triglycerides
  Reduction of time to bring butter to its boiling point: 25%
[5]
  Bacterial load on the surface of the skin: significant reduction of the bacterial load
  Lycopene presence in desquamated corneocytes: significantly increased for the whole period of supplementation
  Lycopene presence in sebum: lycopene amount growth only during the first two weeks of supplementation
  Rate of desquamation of corneocytes: noticeably lower
  Sebum production: significant increase of the sebum production
